This note sets out measurements from US5235045A, “Non-azo naphthalimide dyes” (priority 1992, dated 1993).

The nature of data set [1]: Cell viability in absence of light (trypan blue exclusion). In kind it is cell-based, human. Conditions: dark. From the text: (§1) Following the protocol of (1), above, H9 cells were stained with Compound lb, and the technique of fluorescent microscopy was used to determine visually the sites of localization of dye fluorescence in living cells. Specifically, H9 cells were counted with a hemocytometer and diluted to 5×10^5 /ml. […] Cytospin slides of the cell suspensions were made and they were examined with the fluorescence microscope (Olympus AH-2) using B excitation plus a 460 nm interference excitation filter and a 495 nm emission filter. The cells were also counted with a hemocytometer and their viability determined (see below). […] The former may reflect the diffusional component of the dye incorporation, or may reflect binding in the ER membrane. The latter may indicate lysosomal localization of pinocytosed dye as occurs with Lucifer Yellow.
(§2) Cell viability was determined using dye incorporated according to the protocol directly above. Viability was determined using a trypan blue dye exclusion test in which "live" cells with competent cell membranes exclude the dye. Table 5 summarizes the data obtained using cells exposed to Compound 1b in culture medium, and Table 6 summarizes data obtained using cells exposed to Compound VII.

For another data set, the system named is H9 cells. Described as above. In kind it is cell-based, human. The note with it: dark.
Text: as §1, §2

Data set [2] can be described thus: Bleaching and recovery of fluorescence in aqueous suspension of Cremophor EL. The note with it: for % Un-irradiated Fluorescence / initially activated species permanently losing fluorescence / initially activated species recovering fluorescence: Cremophor EL. In kind it is physicochemical. The procedure:
A 14.9 millimolar stock solution of Ed6Br in Cremophor EL was used to make 3 ml of a micellar Cremophor suspension having a concentration averaged over the entire sample volume of […]. A […] aliquot was removed and diluted with 2.9 ml of distilled water for measurement of fluorescence using an SLM 500C spectrofluorometer (excitation, 420 nm, emission, 520 nm). The 3 ml sample was divided into two 1.5 ml aliquots placed in quartz crusetts. One sample was irradiated with stirring with 420 # 5 nm filtered light from a xenon arc lamp with an irradiance of 20 mW/cm^2 and with the companion sample wrapped in aluminum foil (dark control) and maintained alongside of the irradiated sample. […] After the entire light treatment, both the illuminated and dark control samples were divided into two equal aliquots and held pairwise (dark+previously illuminated) at 4° C. and 20° C. in the absence of light. Aliquots of […] were taken from each sample after 18 and 43 hr and their fluorescence emission values determined using the SLM 500C instrument immediately after sampling.
In an experiment eventually following the protocol described immediately above in Part I (for Ed6Br), the light-induced bleaching of DiEd6Br with 200 J/cm^2 light exposure and recovery of its fluorescence upon standing in the dark at 22° C. were determined.

For the next data set, the system named is Vero cells. Briefly: Cellular toxicity in Vero cells (viral-medium suspension samples). The format is cell-based. The procedure:
(§3) Each sample including the stock virus were assayed on Vero cells for PFU/ml of HSV-1. The assay consisted of growing Vero cells in minimal essential medium with Hanks balanced salt solution supplemented with 10% fetal bovine serum, L-glutamine and antibiotics. Hepes buffer (2%) was added for growth in open plates (twelve well microplates from CO-star). Ten fold dilutions of each sample were prepared and 0.1 ml of the appropriate dilution for each individual sample was adsorbed at 37° C. for 1.5 hr. on a cell monolayer from which the growth medium had been removed. After the adsorption period, the cell monolayer was washed and an overlay consisting of equal volumes of 2X strength L-15 medium and 2% methylcellulose was added. Following an appropriate incubation time at 37° C. (about 4 days), the overlay medium was removed. Monolayers were fixed with methanol and stained with giemsa to elaborate the presence of plaques. The plaques were counted using a dissecting microscope at a magnification of 20X.
as §3, with “Co-star).” for “CO-star).”

Where [3] appears, read: 5 μM, medium 1.5 hours, counted 2.5 hours after.
[4] abbreviates: 25 μM, medium 1.5 hours, counted 2.5 hours after.
Setting [5] is: 1 μM, 100% human plasma 4 hours, 1 hour after.
Setting [6] is: 5 μM, 100% human plasma 4 hours, 1 hour after.
Setting [7] is: 25 μM, 100% human plasma 4 hours, 1 hour after.
Where [8] appears, read: 1 μM, medium 24 hours, 1 hour after.
Setting [9] is: 10 μM, medium 24 hours, 1 hour after.
Setting [10] is: 25 μM, medium 24 hours, 1 hour after.
Where [11] appears, read: 50 μM, medium 24 hours, 1 hour after.

Molecules are shown by their SMILES.

`CCCCCCNc1ccc2c3c(cccc13)C(=O)N(CCCCCC)C2=O` [Compound 1b, 4-(hexyl)amino-N-hexyl-1,8-naphthalimide] had a viability at 1.5 h, 5 µM in data set [1] (human, 5 μM, medium 1.5 hours, counted 2.5 hours after) of 96.7%. This compound showed a viability at 1.5 h, 25 µM in data set [1] (human, 25 μM, medium 1.5 hours, counted 2.5 hours after) of 97.1%. Further, the dead cells with H9 cells (setting [3]) and in the data set on H9 cells (setting [4]) was 4 in each case. Besides, the live cells in the data set with H9 cells (setting [3]) turned out to be 116; in the data set on H9 cells (setting [4]) it was 136.

Compound `CCCCCCNc1c(Br)cc2c3c(cccc13)C(=O)N(CCCCCC)C2=O` [Compound VII, 3-bromo-4-(hexyl)amino-N-hexyl-1,8-naphthalimide] returned a viability at 4 h, 1 µM in data set [1] (setting [5]) of 95.9%. Besides, the viability at 4 h, 5 µM in data set [1] (setting [6]) was 94.7%. The compound also returned a viability at 4 h, 25 µM in data set [1] (setting [7]) of 95.5%. Also, the viability at 24 h, 1 µM in data set [1] (human, 1 μM, medium 24 hours, 1 hour after) stood at 86.8%. In data set [1] (human, 10 μM, medium 24 hours, 1 hour after), this compound showed a viability at 24 h, 10 µM of 80%. Moreover, the viability at 24 h, 25 µM in data set [1] (human, 25 μM, medium 24 hours, 1 hour after) stood at 79.6%. The same compound had a viability at 24 h, 50 µM in data set [1] (human, 50 μM, medium 24 hours, 1 hour after) of 42.5%. For the same compound, the dead cells is recorded as 12 in the data set on H9 cells (setting [5]); 23 with H9 cells (setting [8]); 16 in the data set with H9 cells (setting [6]); 26 in the data set on H9 cells (setting [9]); 16 in the data set on H9 cells (setting [7]); 38 in the data set with H9 cells (setting [10]). The same compound yielded a dead cells in the data set on H9 cells (setting [11]) of 128. In addition, the live cells in the data set on H9 cells (setting [5]) is 280; in the data set with H9 cells (setting [8]) it was 151; with H9 cells (setting [6]), 286; with H9 cells (setting [9]) it was 104; in the data set on H9 cells (setting [7]) it was 339; in the data set with H9 cells (setting [10]), 148. In addition, in the data set on H9 cells (setting [11]), the live cells came to 124. The “% Un-irradiated Fluorescence” value in data set [2] (0 J/cm^2) worked out at 100%; in data set [2] (10 J/cm^2, 420 nm) it was 97.8%; in data set [2] (25 J/cm^2, 420 nm), 96.2%; in data set [2] (50 J/cm^2, 420 nm), 74.9%; in data set [2] (90 J/cm^2, 420 nm), 48.7%; in data set [2] (200 J/cm^2, 420 nm) it was 18.2%. Besides, the “Fluorescence Recovery in Dark” value in data set [2] (0 hour, 4° C.) was 18.2%; in data set [2] (0 hour, 22° C.) it was 18.2%; in data set [2] (18 hour, 4° C.), 24.6%; in data set [2] (18 hour, 22° C.) it was 39.4%; in data set [2] (43 hour, 4° C.), 36.8%; in data set [2] (43 hour, 22° C.), 56.7%. Besides, the “irradiation induced loss of fluorescent intensity” value in data set [2] (200 J/cm^2) is listed as “about 80%”. For the same compound, the “initially activated species permanently losing fluorescence” value in data set [2] is given as “Approximately 50%”. Moreover, in data set [2], the “initially activated species recovering fluorescence” value was “Approximately 50%”. In addition, the “ultimate fluorescent intensity regained, of initial” value in data set [2] (after 200 J/cm^2) was “approximately 40%”. In addition, the “change of fluorescence emission intensity in absence of light” value in data set [2] (dark) was “lack of change of the value of fluorescence emission intensity”. For the same compound, the cellular toxicity entry in the data set with Vero cells (Ed6Br, 8 concentrations, not irradiated) is reported as “no evidence of cellular toxicity”. In the data set with Vero cells (two concentrations, vs irradiated samples), the “cellular toxicity of not previously irradiated samples” value was “significantly less cellular toxicity than the irradiated samples”.

Consider `CCCCCCN1C(=O)c2cccc3c(NCCNC(=O)CCCCC(=O)NCCNc4c(Br)cc5c6c(cccc46)C(=O)N(CCCCCC)C5=O)c(Br)cc(c23)C1=O` [Compound XLIV], for which the “fluorescence, % of initial (dark) value” in data set [2] (200 J/cm^2, 420 nm) came out at 32.2%. The “fluorescence recovered, % of initial value” in data set [2] (70 hours at 22° C.) came to 62.7%; in data set [2] (166 hours at 22° C.) it was 64.0%. In data set [2], the “initially activated species permanently losing fluorescence” value is “Approximately 50%”. For the same compound, the “initially activated species recovering fluorescence” value in data set [2] was “Approximately 50%”. The cellular toxicity result is given as “no evidence of cellular toxicity” in the data set with Vero cells (DiEd6Br, 2 concentrations, not irradiated (Table 18 experiment)); “no evidence of cellular toxicity” in the data set with Vero cells (DiEd6Br, 8 concentrations, not irradiated (Table 15 experiment)); “no evidence of cellular toxicity” with Vero cells (DiEd6Br, 8 concentrations, not irradiated (Table 16 experiment)).
